Laboratory results from US20220218852A1, “NOVEL RADIOLABELLED CXCR4-TARGETING COMPOUNDS FOR DIAGNOSIS AND THERAPY” (PROVINCIAL HEALTH SERVICES AUTHORITY, priority 2019, published 2022).
Like-named read-outs stand apart in the source and are kept apart here. Positions of bridges follow the written chain, without caps; N, C: chain ends. Non-standard residues stand in square brackets, D forms with d. Residues, ends and D or L forms follow the SMILES beside them. Groups on a side chain read outwards from the residue. *: point of attachment. DOTA = O=C(O)CN1CCN(CC(=O)O)CCN(CC(=O)*)CCN(CC(=O)O)CC1; 2Nal = N[C@@H](Cc1ccc2ccccc2c1)C(=O)O; Lys(iPr) = CC(C)NCCCC[C@H](N)C(=O)O

What was measured:
[1] = Biodistribution in Daudi tumor-bearing mice; type: in vivo; details: male, NOD.Cg-Rag1^tm1MomII2rg^tm1Wjl/SzJ (NRG), mouse, iv, total radioactivity, Daudi
Method: (§1) For Daudi, Z138, GRANTA519 and Jeko1 xenografts, male NOD.Cg-Rag1^tm1MomII2rg^tm1Wjl/SzJ (NRG) mice were subcutaneously inoculated on the left flank with 5×10^6 cells (100 μL; 1:1 ratio of PBS/Matrigel) and tumors were grown to a size of 200-500 mm^3. For PC-3 xenografts, male NOD.Cg-Rag1^tm1MomII2rg^tm1Wjl/SzJ (NRG) mice were subcutaneously inoculated on the left flank with 5×10^6 PC-3 cells (100 μL; 1:1 ratio of PBS/Matrigel) and tumors were grown to a size of 200-400 mm^3.
(§2) The mice were euthanized via CO2 inhalation while anesthetized with isoflurane. Tissues were harvested, washed in PBS, blotted dry, weighed, and measured on a Hidex AMG Automatic Gamma Counter.

[2] = tested on: Daudi Burkitt's lymphoma xenografts; test: Biodistribution in Daudi tumor-bearing mice; type: in vivo; details: Daudi
Method: as §1, §2

[3] = 1 h blocked (7.5 μg LY2510924 i.p.)

## CC(C)NCCCC[C@@H]1NC(=O)[C@H](Cc2ccc(O)cc2)NC(=O)[C@H](Cc2ccccc2)NC(=O)CC[C@H](C(=O)N[C@@H](CCCCNC(C)C)C(=O)N[C@@H](CCCCNC(=O)[C@H](CCC(=O)O)NC(=O)[C@H](CCC(=O)O)NC(=O)[C@H](CCC(=O)O)NC(=O)CN2CCN(CC(=O)O)CCN(CC(=O)O)CCN(CC(=O)O)CC2)C(N)=O)NC(=O)CNC(=O)[C@H](Cc2ccc3ccccc3c2)NC(=O)[C@@H](CCCNC(=N)N)NC1=O [[^68Ga]Ga-BL02, metal not drawn] (FY[Lys(iPr)][dR][2Nal]G[dE][Lys(iPr)]K([Glu-Glu-Glu-DOTA])-NH2; lactam N-7)
[1]; blood, 1 h, read-out: Biodistribution Blood
  tissue uptake at 1 h: 0.31 %ID/g
[1]; blood, 1 h blocked (7.5 μg LY2510924 i.p.), read-out: Biodistribution Blood
  tissue uptake at 1 h: 0.5 %ID/g
[1]; blood, read-out: Biodistribution Blood
  tissue uptake at 2 h: 0.08 %ID/g
[1]; fat, 1 h, read-out: Biodistribution Fat
  tissue uptake at 1 h: 0.05 %ID/g
[1]; fat, 1 h blocked (7.5 μg LY2510924 i.p.), read-out: Biodistribution Fat
  tissue uptake at 1 h: 0.07 %ID/g
[1]; fat, read-out: Biodistribution Fat
  tissue uptake at 2 h: 0.02 %ID/g
[1]; tumor, 1 h blocked (7.5 μg LY2510924 i.p.), read-out: Biodistribution Daudi (tumor)
  tissue uptake at 1 h: 0.8 %ID/g
[1]; tumor, read-out: Biodistribution Daudi (tumor)
  tissue uptake at 2 h: 7.78 %ID/g
[2]; 1 h
  Biodistribution Adrenals: 0.36 % ID/g
  Biodistribution Bone: 0.19 % ID/g
  Biodistribution Brain: 0.02 % ID/g
  Biodistribution Daudi (tumor): 8.52 % ID/g
  Biodistribution Heart: 0.13 % ID/g
  Biodistribution Intestine: 0.22 % ID/g
  Biodistribution Kidney: 4.18 % ID/g
  Biodistribution Liver: 0.59 % ID/g
  Biodistribution Lung: 0.48 % ID/g
  Biodistribution Muscle: 0.10 % ID/g
  Biodistribution Pancreas: 0.18 % ID/g
  Biodistribution Spleen: 0.53 % ID/g
  Biodistribution Stomach: 0.07 % ID/g
  Biodistribution Testes: 0.11 % ID/g
  Ratio Tumor: Blood: 30.57
  Ratio Tumor: Bone: 48.04
  Ratio Tumor: Liver: 14.30
  Ratio Tumor: Lung: 18.07
  Ratio Tumor: Muscle: 80.77
  Ratio Tumor: Spleen: 17.18
[2]; [3]
  Biodistribution Adrenals: 0.32 % ID/g
  Biodistribution Bone: 0.20 % ID/g
  Biodistribution Brain: 0.02 % ID/g
  Biodistribution Heart: 0.14 % ID/g
  Biodistribution Intestine: 0.31 % ID/g
  Biodistribution Kidney: 4.63 % ID/g
  Biodistribution Liver: 0.55 % ID/g
  Biodistribution Lung: 0.58 % ID/g
  Biodistribution Muscle: 0.09 % ID/g
  Biodistribution Pancreas: 0.12 % ID/g
  Biodistribution Spleen: 0.23 % ID/g
  Biodistribution Stomach: 0.07 % ID/g
  Biodistribution Testes: 0.15 % ID/g
  Ratio Tumor: Blood: 1.71
  Ratio Tumor: Bone: 4.44
  Ratio Tumor: Liver: 1.47
  Ratio Tumor: Lung: 1.43
  Ratio Tumor: Muscle: 9.23
  Ratio Tumor: Spleen: 3.57
[2]; 2 h
  Biodistribution Adrenals: 0.21 % ID/g
  Biodistribution Bone: 0.09 % ID/g
  Biodistribution Brain: 0.01 % ID/g
  Biodistribution Heart: 0.05 % ID/g
  Biodistribution Intestine: 0.12 % ID/g
  Biodistribution Kidney: 3.40 % ID/g
  Biodistribution Liver: 0.54 % ID/g
  Biodistribution Lung: 0.27 % ID/g
  Biodistribution Muscle: 0.04 % ID/g
  Biodistribution Pancreas: 0.05 % ID/g
  Biodistribution Spleen: 0.24 % ID/g
  Biodistribution Stomach: 0.07 % ID/g
  Biodistribution Testes: 0.05 % ID/g
  Ratio Tumor: Blood: 114.6
  Ratio Tumor: Bone: 87.81
  Ratio Tumor: Liver: 14.47
  Ratio Tumor: Lung: 31.68
  Ratio Tumor: Muscle: 216.0
  Ratio Tumor: Spleen: 36.06
